The source of these data is ChEMBL document CHEMBL1201862, “PubChem BioAssay data set” (2004).

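Cultured in 96-well plates, cells were exposed to test compound for 48 hours across five concentrations. At the GI50, growth is halved.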 Activity calls are given as the source filed them. Rule as the data show it: active = GI50 up to about 1.1 µM and inactive = higher.

What all share (test): inhibition of tumour cell growth, NCI panel, 48 h
Assay [1] deals with SNB-78.
In assay [2] the test system is XF498.
Assay [3] deals with M19-MEL.
For assay [4], the system named is LXFL 529.
Assay [5] relates to RXF 631.
Assay [6] relates to HOP-18.
For assay [7], the system named is MDA-N.
For assay [8], the system named is BT-549.
The test system of assay [9] is Hs-578T.

Turning to `CNC(=O)C(C)C1CCC2(C)C=CC(=O)C(C)=C2C1O` (configuration not stated), the GI50 in assay [1], in [2] and in assay [3] was > 100 µM (inactive) in each case.

Consider `COC(=O)N1C=Cc2c(c(C)c3c([nH]c4ccccc43)c2C)C1C` (configuration not stated), for which the GI50 in [4] is 22.2 µM (inactive); in assay [2], 17.7 µM (inactive); in [3] it was 20.8 µM (inactive); in assay [5], 16.4 µM (inactive).

Take `CC(=O)Oc1ccc(Nn2c3ccccc3c3ccccc32)c(C)c1`: the GI50 in assay [4] is 33.7 µM (inactive); in [1], 39.4 µM (inactive); in [2] it was 27.7 µM (inactive); in [6], 16.7 µM (inactive); in assay [3] it was 31.9 µM (inactive).

Turning to `S=c1c2nc[nH]c2ncn1CCSC1=NC=NC2=NC=NC21` (configuration not stated), the GI50 in assay [7] is 61.7 µM (inactive); in [8], > 100 µM (inactive); in assay [1] it was 73.6 µM (inactive); in assay [9], > 100 µM (inactive); in assay [2], > 100 µM (inactive); in assay [6], > 100 µM (inactive). The GI50 in assay [3] was > 100 µM (inactive).

On to `NC(CCCCNCc1ccccc1)C(=O)O` (configuration not stated), for which the GI50 in assay [4], in assay [1], in [6], in [3] and in assay [5] was > 100 µM (inactive) each time.

Consider `CN(C)CCNC(=O)c1cccc2c1nc(-c1cccnc1)c1ccccc12`, for which the GI50 in [1] is 8.18 µM (inactive); in [6], 21.6 µM (inactive); in assay [3] it was 5 µM (inactive); in assay [5] it was 1.96 µM (inactive).

Consider `CCCCCCCCCCCC(=O)C1=C(O)CCC(O)C1=O` (configuration not stated), for which the GI50 is 16.6 µM (inactive) in assay [4]; 21.9 µM (inactive) in assay [1]; 10.7 µM (inactive) in [2]; 25.5 µM (inactive) in assay [6]; 19.5 µM (inactive) in assay [3].

As for `CC(C)CC(N/C=C1/N=C(c2ccccc2)OC1=O)C(=O)O` (configuration not stated), the GI50 in assay [1], in assay [3] and in assay [5] was > 100 µM (inactive) in each case.

`O=C(CC1(O)C(=O)Nc2c(Cl)cc(Cl)cc21)c1ccco1` (configuration not stated): the GI50 in assay [4] is 37.8 µM (inactive); in assay [1], 26.9 µM (inactive); in [2] it was 25.1 µM (inactive); in [6], 55.7 µM (inactive).

On to `CC1(O)C=CC(=O)C=C1`, for which the GI50 in [4] was 13.3 µM (inactive); in assay [1] it was 34.8 µM (inactive); in [2], 29.1 µM (inactive); in [6], 58.2 µM (inactive); in [3] it was 22.6 µM (inactive).

For `C/C(=N/NC(=O)c1ccccc1S(N)(=O)=O)C(CN1CCCCC1)C(C1=C(O)C2C=CC=CC2OC1=O)c1ccccc1` (configuration not stated), the GI50 is 96.6 µM (inactive) in assay [4]; > 100 µM (inactive) in assay [1]; > 100 µM (inactive) in assay [2]; 87.1 µM (inactive) in assay [6]; 47.6 µM (inactive) in assay [3]; > 100 µM (inactive) in [5].

As to `CC(=O)C1C(=O)C(=O)N(c2ccc(Cl)cc2C)C1=O` (configuration not stated), the GI50 in assay [4], in [1], in assay [6], in assay [3] and in assay [5] was > 100 µM (inactive) in each case.

Consider `O=C1NC2CCCCCC2C12CCCCC2` (configuration not stated), for which the GI50 in assay [4], in [1], in assay [2], in assay [3] and in assay [5] was > 100 µM (inactive) each time.

In the case of `COc1cc(/C=C/C(=O)O)ccc1C(=O)OCc1ccccc1`, the GI50 in assay [1], in [2], in assay [6] and in assay [3] was > 100 µM (inactive) each time.

Regarding `O=C(NNc1ccc([N+](=O)[O-])cc1)C1OC(CO)C(O)C1O` (configuration not stated), the GI50 was 38.3 µM (inactive) in [4]; > 100 µM (inactive) in assay [1]; > 100 µM (inactive) in assay [2]; > 100 µM (inactive) in assay [6]; > 100 µM (inactive) in [3].

On to `COc1ccc2c(c1)[n+]([O-])c(-c1cccc(Cl)c1)c(N)[n+]2[O-]`, for which the GI50 was 79.8 µM (inactive) in assay [1], > 100 µM (inactive) in [2], > 100 µM (inactive) in assay [6] and 30.3 µM (inactive) in assay [3].

Consider `CN(C)CCNC(=O)c1cccc2cc3cc(O)ccc3nc12`, for which the GI50 was 2.47 µM (inactive) in assay [1], 0.916 µM (active) in assay [2], 1.32 µM (inactive) in assay [6] and 1.2 µM (inactive) in [3].

With `Cc1ccc(S(=O)(=O)N/N=C(/c2nc3ccc([N+](=O)[O-])cc3nc2O)C(O)c2ccc(C(O)/C(=N\NS(=O)(=O)c3ccc(C)cc3)c3nc4ccc([N+](=O)[O-])cc4nc3O)cc2)cc1` (configuration not stated), the GI50 was 21.4 µM (inactive) in [4], > 100 µM (inactive) in assay [1], > 100 µM (inactive) in assay [2] and 56.5 µM (inactive) in [5].

As for `COC(=O)C#CCC1CCCC1C1SCCS1` (configuration not stated), the GI50 in [4] is 70.1 µM (inactive); in assay [1], 23.6 µM (inactive); in assay [2] it was 41 µM (inactive); in assay [6], > 100 µM (inactive); in assay [3], > 100 µM (inactive); in [5], > 100 µM (inactive).

Turning to `COc1ccc(Br)c(CN2CCc3ccccc32)c1OS(=O)(=O)c1ccc(C)cc1`, the GI50 is 23.3 µM (inactive) in assay [1]; 12.4 µM (inactive) in assay [2]; > 100 µM (inactive) in [6]; 4.03 µM (inactive) in [3]; 34.4 µM (inactive) in [5].

Take `CN1c2ccccc2N(C(=O)c2ccc([N+](=O)[O-])cc2)C(CC(=O)O)c2cccn21` (configuration not stated): the GI50 in assay [4], in assay [1], in assay [2] and in assay [3] was > 100 µM (inactive) in each case.

On to `COC(C(O)c1ccc2c(c1)OCO2)P(=O)(c1ccccc1)c1ccccc1` (configuration not stated), for which the GI50 in assay [1], in [2] and in [3] was > 100 µM (inactive) each time.

Consider `c1ccc(N/N=C2\NN=C(c3ccccc3)CS2)cc1`, for which the GI50 is 5.46 µM (inactive) in [1] and 5.52 µM (inactive) in assay [5].

`Nc1cc(O)c2cc(/N=N/c3ccc(/N=N/c4ccc(/N=N/c5ccc6cc(S(=O)(=O)O)cc(S(=O)(=O)O)c6c5)c5ccccc45)c4cc(S(=O)(=O)O)ccc34)c(S(=O)(=O)O)cc2c1`: the GI50 in [1], in assay [2], in assay [6] and in [3] was > 100 µM (inactive) throughout.

With `COC1O[C@H]2CCN(C(=O)OCc3ccccc3)[C@H]2[C@H]1OCc1ccccc1` (some centres not stated), the GI50 is 40.2 µM (inactive) in [4]; 54.8 µM (inactive) in [1]; 35.2 µM (inactive) in assay [2]; > 100 µM (inactive) in assay [6]; 53 µM (inactive) in assay [3].

Turning to `COC(=O)C1=C(O)c2cc3c(cc2[C@H](c2cc(OC)c(OC)c(OC)c2)C1C(=O)OC)OCO3` (some centres not stated), the GI50 in [4] was 56.5 µM (inactive); in assay [1], 53.2 µM (inactive); in assay [2], 25.1 µM (inactive); in [6] it was 29.2 µM (inactive); in assay [3] it was 39.5 µM (inactive); in assay [5], > 100 µM (inactive).
